What was measured:
GST-hCAR-LBD = target: T1, GST-hCAR-LBD (Homo sapiens, UniProt Q14994); test: CAR-mediated fluorescent PGC1α coactivator recruitment/repression assay; settings: ratio of IC50 values; for fold increase of IC50 (less potent) relative to lead chemical 11 / fold more potent than lead compound CINPA1 (11): comparator 11 (IC50 687 nM)
T1 sequence (Q14994 109-348 isoform Q14994-2 limits assumed): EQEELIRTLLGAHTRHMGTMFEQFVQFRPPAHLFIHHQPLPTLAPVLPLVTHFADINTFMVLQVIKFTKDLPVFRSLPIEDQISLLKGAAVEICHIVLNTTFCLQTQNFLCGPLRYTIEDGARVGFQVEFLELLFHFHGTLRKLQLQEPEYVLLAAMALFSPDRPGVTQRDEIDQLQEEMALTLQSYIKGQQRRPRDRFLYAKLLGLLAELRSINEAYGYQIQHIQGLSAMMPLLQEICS

PXR [1] = settings: only at very high concentrations, 20 or 40 μM; cited from earlier work
CAR = settings: only at very high concentrations, 20 or 40 μM; cited from earlier work
hCAR = settings: cultured human hepatocytes; cited from earlier work
PXR [2] = settings: cited from earlier work

Compound | fold increase of IC50 (less potent) relative to lead chemical 11 (GST-hCAR-LBD) | fold more potent than lead compound CINPA1 (11) (GST-hCAR-LBD) | other results
CCOC(=O)Nc1ccc2c(c1)N(C(=O)CN1C(C)(C)CCCC1(C)C)c1ccccc1CC2 [Compound 26, Ethyl (5-(2-(2,2,6,6-tetramethylpiperidin-1-yl)acetyl)-10,11-dihydro-5H-dibenzo[b,f]azepin-3-yl)carbamate] | – | – | fold IC50 relative to chemical 25 (GST-hCAR-LBD; comparator 25): over 6 fold
CCOC(=O)Nc1ccc2c(c1)N(C(=O)CN(C(C)C)C(C)C)c1ccccc1CC2 [Compound 23, Ethyl (5-(diisopropylglycyl)-10,11-dihydro-5H-dibenzo[b,f]azepin-3-yl)carbamate] | more than 4 fold | – | –
CCOC(=O)Nc1ccc2c(c1)N(C(=O)CNC(C)(C)CC)c1ccccc1CC2 [Compound 32, Ethyl (5-(tert-pentylglycyl)-10,11-dihydro-5H-dibenzo[b,f]azepin-3-yl)carbamate] | 3 fold | – | –
C=CCN=C=S [AITC, allyl isothiocyanate] | – | – | inhibitory effect against PXR (PXR [1]): inhibitory effects against both CAR and PXR; inhibitory effect against CAR (CAR): inhibitory effects against both CAR and PXR
CC(C)OC(=O)Nc1ccc2c(c1)N(C(=O)CCN(C)C)c1ccccc1CC2 [Compound 20] | – | – | fold increase in potency compared to chemical 18 (GST-hCAR-LBD; comparator 18): about 3 fold
Cc1cccc(CN2CCN(C(c3ccccc3)c3ccc(Cl)cc3)CC2)c1 (stereo not shown) [Meclizine] | – | – | hCAR inverse agonist or antagonist effect (hCAR): failed to act as an effective hCAR inverse agonist or antagonist
CCOC(=O)Nc1ccc2c(c1)N(C(=O)CN(CC)CC)c1ccccc1CC2 [Compound 11, ethyl (5-(diethylglycyl)-10,11-dihydro-5H-dibenzo[b,f]azepin-3-yl)carbamate] | – | – | PXR activation (PXR [2]): does not activate PXR
CCOC(=O)Nc1ccc2c(c1)N(C(=O)CCN(CC)CC)c1ccccc1CC2 [Compound 33, Ethyl (5-(3-(diethylamino)propanoyl)-10,11-dihydro-5H-dibenzo[b,f]azepin-3-yl)carbamate] | 3.5 fold | – | –
CCOC(=O)Nc1ccc2c(c1)N(C(=O)CN1C(=O)C=CC1=O)c1ccccc1CC2 [Compound 28, Ethyl (5-(2-(2,5-dioxo-2,5-dihydro-1H-pyrrol-1-yl)acetyl)-10,11-dihydro-5H-dibenzo[b,f]azepin-3-yl)carbamate] | – | – | fold IC50 relative to chemical 24 (GST-hCAR-LBD; comparator 24, less active): 25 fold
CCN(CC)CC(=O)N1c2ccccc2CCc2ccc(Nc3nnc(C)o3)cc21 [Compound 44, 2-(Diethylamino)-1-(3-((5-methyl-1,3,4-oxadiazol-2-yl)amino)-10,11-dihydro-5H-dibenzo[b,f]azepin-5-yl)ethan-1-one] | about 3.4 fold | – | –
CCCN(CCC)CC(=O)N1c2ccccc2CCc2ccc(NC(=O)OCC)cc21 [Compound 22, Ethyl (5-(dipropylglycyl)-10,11-dihydro-5H-dibenzo[b,f]azepin-3-yl)carbamate] | – | 3 fold | –
CCOC(=O)Nc1ccc2c(c1)N(C(=O)COC(C)(C)C)c1ccccc1CC2 [Compound 35, Ethyl (5-(2-(tert-butoxy)acetyl)-10,11-dihydro-5H-dibenzo[b,f]azepin-3-yl)carbamate] | – | 9.7 fold | –
CCOC(=O)Nc1ccc2c(c1)N(C(=O)Cn1ccnc1)c1ccccc1CC2 [Compound 30, Ethyl (5-(2-(1H-imidazol-1-yl)acetyl)-10,11-dihydro-5H-dibenzo[b,f]azepin-3-yl)carbamate] | – | – | fold IC50 relative to chemical 29 (GST-hCAR-LBD; comparator 29, loss of activity): 186 fold

The next lines start with results.

fold increase of IC50 (less potent) relative to lead chemical 11 (GST-hCAR-LBD) | fold more potent than lead compound CINPA1 (11) (GST-hCAR-LBD) | Compound | other results
56 fold | – | CCOC(=O)Nc1ccc2c(c1)N(C(=O)CN1CCN(C)CC1)c1ccccc1CC2 [Compound 13] | –
– | 32.8 fold | CC(C)OC(=O)Nc1ccc2c(c1)N(C(=O)Cn1cccc1)c1ccccc1CC2 [Compound 56, Isopropyl (5-(2-(1H-pyrrol-1-yl)acetyl)-10,11-dihydro-5H-dibenzo[b,f]azepin-3-yl)carbamate] | –
5 fold | – | CCOC(=O)Nc1ccc2c(c1)N(C(=O)CNC(C)(C)C)c1ccccc1CC2 [Compound 16] | –
– | about 59 fold | O=C(Nc1ccc2c(c1)N(C(=O)Cn1cccc1)c1ccccc1CC2)OC1CCCCC1 [Compound 72, Cyclohexyl (5-(2-(1H-pyrrol-1-yl)acetyl)-10,11-dihydro-5H-dibenzo[b,f]azepin-3-yl)carbamate] | –
more than 2 fold | – | CCOC(=O)Nc1ccc2c(c1)N(C(=O)CN1CCCC1)c1ccccc1CC2 [Compound 24, Ethyl (5-(2-(pyrrolidin-1-yl)acetyl)-10,11-dihydro-5H-dibenzo[b,f]azepin-3-yl)carbamate] | –
– | about 3 fold | CCOC(=O)Nc1ccc2c(c1)N(C(=O)CN1CCOCC1)c1ccccc1CC2 [Compound 12] | –
– | 19 fold | CCOC(=O)Nc1ccc2c(c1)N(C(=O)Cn1cccc1)c1ccccc1CC2 [Compound 29, Ethyl (5-(2-(1H-pyrrol-1-yl)acetyl)-10,11-dihydro-5H-dibenzo[b,f]azepin-3-yl)carbamate] | fold more potent than chemical 24 (GST-hCAR-LBD; comparator 24): 43 fold

Reference: PMC4724233 (European journal of medicinal chemistry, 2015)
